{"source": "patent US4818770A", "about": "“Prevention of a plant disease by specific inhibition of fungal polyamine biosynthesis” (priority 1986, dated 1989)", "key": {"[1]": {"conditions": "Tabor et al. (1985); cited from earlier work"}, "tomato plants": {"test_system": "tomato plants", "assay": "Effect on growth of uninoculated tomato plants", "type": "in vivo, Lycoperisicon esculentum", "conditions": "concentrations up to 20 mM; 28-day observation period"}}}
{"compound": "NCCCC(N)(C(=O)O)C(F)F", "note": "(racemic) [DFMO, DL-alpha-difluorimethylornithine]", "values": [{"measurement": "toxicity", "setting": "[1]", "value": "low toxicity"}, {"measurement": "growth and development of uninoculated tomato plants", "setting": "tomato plants", "value": "no apparent effects on the growth and development of the plants"}]}
